Columns and labels:
Cyclooxygenase-2 = molecular target: T1, Cyclooxygenase-2 (Mus musculus, UniProt Q05769); assay: COX-2 assay: LPS-stimulated PGE2 production in mouse peritoneal macrophages (RIA); type: cell-based, mice; conditions: for IC50: mouse peritoneal macrophages, LPS 1 mg/L 9 h, PGE2 by RIA; for COX-1/COX-2: ratio of IC50 COX-1 to IC50 COX-2
T1 construct: endogenous in cells; host or cells: thioglycollate-elicited peritoneal macrophages of male C57BL-6J mice
T1 sequence (Q05769 18-604): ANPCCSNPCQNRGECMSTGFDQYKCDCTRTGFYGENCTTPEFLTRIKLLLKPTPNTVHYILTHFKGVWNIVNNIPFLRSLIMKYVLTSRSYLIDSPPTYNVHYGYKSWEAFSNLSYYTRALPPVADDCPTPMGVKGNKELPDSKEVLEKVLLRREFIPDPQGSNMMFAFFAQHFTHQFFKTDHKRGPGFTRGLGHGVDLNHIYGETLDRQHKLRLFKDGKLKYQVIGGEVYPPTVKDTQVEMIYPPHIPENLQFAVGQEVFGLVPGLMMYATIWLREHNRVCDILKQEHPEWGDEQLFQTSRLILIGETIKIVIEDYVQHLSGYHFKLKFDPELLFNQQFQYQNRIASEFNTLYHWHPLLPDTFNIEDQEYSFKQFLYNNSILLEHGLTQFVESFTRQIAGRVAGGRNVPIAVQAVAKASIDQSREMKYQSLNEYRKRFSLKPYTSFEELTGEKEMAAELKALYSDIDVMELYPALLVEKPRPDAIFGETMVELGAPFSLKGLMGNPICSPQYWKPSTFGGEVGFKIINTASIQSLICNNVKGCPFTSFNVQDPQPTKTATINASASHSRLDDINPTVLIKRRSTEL
Protocol: Cell culture: Adherent macrophages were harvested from the peritoneal cells of male mice (C57BL-6J, Level 2, from Experiment Animal Center, Academy of Military Medical Science) 3 d after the injection (ip) of brewer thioglycollate medium (5 mL/100 g body weight). […] After settlement for 2˜3 h, non-adherent cells were washed by D-Hanks' balanced salt solution. […] Cell viability was examined by trypan blue dye exclusion. All incubation procedures were performed with 5% CO2 in humidified air at 37° C.
COX-2 assay: Macrophages were incubated with test compound at different concentrations or solvent (Me2SO) for 1 h and were stimulated with LPS 1 mg/L for 9 h. The amount of PGE2 in supernatants was measured by RIA. The inhibitory ratio was calculated using the same formula as in COX-1 assay section. Cs, Ct, Cc refer to PGE2 concentration in supernatants of LPS, test compound, and control groups, respectively.
(§1) [formula] Cs, Ct, Cc refer to 6-keto-PGF1[…] concentration in supernatants of calcimycin, test compound, and control groups, respectively.
(§2) Statistical analysis: Data were expressed as the mean±SD of more than three independent experiments. Dose-inhibitory effect curves were fit through “uphill dose response curves, variable slope” using Prism, GraphPad version3.00: […]

Cyclooxygenase-1 = molecular target: T2, Cyclooxygenase-1 (Mus musculus, UniProt P22437); assay: COX-1 assay: calcimycin-stimulated 6-keto-PGF1 production in mouse peritoneal macrophages (RIA); type: cell-based, mice; conditions: calcimycin 1 μmol/L 1 h, 6-keto-PGF1 by RIA
T2 construct: endogenous in cells; host or cells: thioglycollate-elicited peritoneal macrophages of male C57BL-6J mice
T2 sequence (P22437 27-602): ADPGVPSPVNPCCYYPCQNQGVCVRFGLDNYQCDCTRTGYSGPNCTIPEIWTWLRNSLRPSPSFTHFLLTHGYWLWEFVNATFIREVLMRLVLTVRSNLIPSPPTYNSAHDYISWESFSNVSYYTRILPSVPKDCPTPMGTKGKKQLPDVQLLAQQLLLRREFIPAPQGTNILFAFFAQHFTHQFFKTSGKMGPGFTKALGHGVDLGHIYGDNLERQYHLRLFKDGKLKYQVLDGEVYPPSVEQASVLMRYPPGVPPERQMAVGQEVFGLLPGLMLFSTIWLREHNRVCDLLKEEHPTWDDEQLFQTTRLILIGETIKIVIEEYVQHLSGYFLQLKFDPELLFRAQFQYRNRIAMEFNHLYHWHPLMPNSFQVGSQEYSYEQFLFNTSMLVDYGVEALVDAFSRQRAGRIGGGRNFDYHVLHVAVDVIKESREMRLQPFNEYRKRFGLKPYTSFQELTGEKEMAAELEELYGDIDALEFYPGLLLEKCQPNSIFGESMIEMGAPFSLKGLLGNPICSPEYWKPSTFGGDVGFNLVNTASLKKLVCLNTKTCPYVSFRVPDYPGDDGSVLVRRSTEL
Protocol: Cell culture: Adherent macrophages were harvested from the peritoneal cells of male mice (C57BL-6J, Level 2, from Experiment Animal Center, Academy of Military Medical Science) 3 d after the injection (ip) of brewer thioglycollate medium (5 mL/100 g body weight). Shortly, peritoneal cells obtained from 3˜4 mice were mixed and seeded in 48 well cell culture cluster (Costar) at a cell density of 1×10^9 cell/L in RPMI-1640 supplemented with 5% (v/v) newborn calf serum, 100 ku/L penicillin and […] streptomycin. After settlement for 2˜3 h, non-adherent cells were washed by D-Hanks' balanced salt solution. Then macrophages were cultured in RPMI-1640 without serum. Almost all of adherent cells were macrophages as assessed by Giemsa staining. Cell viability was examined by trypan blue dye exclusion. All incubation procedures were performed with 5% CO2 in humidified air at 37° C.
COX-1: assay Macrophages were incubated with test compound at different concentrations or solvent (Me2SO) for 1 h and were stimulated with calcimycin 1 μmol·L^−1 for 1 h. The amount of 6-keto-PGF1[…] (a stable metabolite of PGI2) in supernatants was measured by RIA according to manufacturer's guide. The inhibitory ratio was calculated as
as §1, §2

IC50 (Cyclooxygenase-2) | IC50 (Cyclooxygenase-1) | COX-1/COX-2 (Cyclooxygenase-2) | Structure (SMILES)
66.4 nM | > 10000 nM | – | CS(=O)(=O)c1ccc(C2=C(c3ccc(F)cc3)C(=O)N(C3CC3)C2)cc1 [Example 128, N-Cyclopropyl-3-(4-fluorophenyl)-4-(4-methylsulfonylphenyl)-2,5-dihydropyrrole-2-one]
20.7 nM | 143 nM | – | CS(=O)(=O)c1ccc(C2=C(c3ccc(Cl)cc3)C(=O)N(C3CCCCC3)C2)cc1 [Example 127, N-Cyclohexyl-3-(4-chlorophenyl)-4-(4-methylsulfonylphenyl)-2,5-dihydropyrrole-2-one]
1690 nM | > 10000 nM | – | NS(=O)(=O)c1ccc(C2=C(c3cccc(Cl)c3)CN(C3CC3)C2=O)cc1 [Example 137, N-Cylcopropyl-3-(4-aminosulfonylphenyl)-4-(3-chlorophenyl)-2,5-dihydropyrrole-2-one]
998 nM | > 10000 nM | – | CS(=O)(=O)c1ccc(C2=C(c3cccc(F)c3)CN(C3CC3)C2=O)cc1 [Example 113, N-Cyclopropyl-3-(4-methylsulfonylphenyl)-4-(3-fluorophenyl)-2,5-dihydropyrrole-2-one]
1790 nM | > 10000 nM | – | CS(=O)(=O)c1ccc(C2=C(c3ccccc3)CN(C3CCCCC3)C2=O)cc1 [Example 112, N-Cyclohexyl-3-(4-methylsulfonylphenyl)-4-phenyl-2,5-dihydropyrrole-2-one]
564 nM | > 10000 nM | – | CCCN1CC(c2cccc(F)c2)=C(c2ccc(S(N)(=O)=O)cc2)C1=O [Example 135, N-Propyl-3-(4-aminosulfonylphenyl)-4-(3-fluorophenyl)-2,5-dihydropyrrole-2-one]
18.7 nM | > 10000 nM | – | Cc1cccc(C2=C(c3ccc(S(N)(=O)=O)cc3)CN(C3CC3)C2=O)c1 [Example 141, N-Cylcopropyl-3-(3-methylphenyl)-4-(4-aminosulfonylphenyl)-2,5-dihydropyrrole-2-one]
482 nM | – | – | CCCN1CC(c2cccc(Cl)c2)=C(c2ccc(S(N)(=O)=O)cc2)C1=O [Example 133, N-Propyl-3-(4-aminosulfonylphenyl)-4-(3-chlorophenyl)-2,5-dihydropyrrole-2-one]
421 nM | > 10000 nM | – | CS(=O)(=O)c1ccc(C2=C(c3ccc(Cl)cc3)CN(C3CC3)C2=O)cc1 [Example 107, N-Cyclopropyl-3-(4-methylsulfonylphenyl)-4-(4-chlorophenyl)-2,5-dihydropyrrole-2-one]
611 nM | > 10000 nM | – | CCCN1CC(c2ccc(F)cc2)=C(c2ccc(S(C)(=O)=O)cc2)C1=O [Example 106, N-Propyl-3-(4-methylsulfonylphenyl)-4-(4-fluorophenyl)-2,5-dihydropyrrole-2-one]
421 nM | > 10000 nM | – | CN1CC(c2cccc(Cl)c2)=C(c2ccc(S(C)(=O)=O)cc2)C1=O [Example 109, N-Methyl-3-(4-methylsulfonylphenyl)-4-(3-chlorophenyl)-2,5-dihydropyrrole-2-one]
19.3 nM | 119 nM | – | CCCN1CC(c2ccc(S(C)(=O)=O)cc2)=C(c2cccc(C)c2)C1=O [Example 121, N-Propyl-3-(3-methylphenyl)-4-(4-methylsulfonylphenyl)-2,5-dihydropyrrole-2-one]
25.3 nM | 468 nM | 18.5 | CS(=O)(=O)c1ccc(C2=C(c3ccccc3)C(=O)N(C3CC3)C2)cc1 [Example 116, N-Cyclopropyl-3-phenyl-4-(4-methylsulfonylphenyl)-2,5-dihydropyrrole-2-one]
15.5 nM | 221 nM | 14.3 | Cc1cccc(C2=C(c3ccc(S(C)(=O)=O)cc3)CN(C3CC3)C2=O)c1 [Example 126, N-Cyclopropyl-3-(3-methylphenyl)-4-(4-methylsulfonylphenyl)-2,5-dihydropyrrole-2-one]
998 nM | > 10000 nM | – | CCCN1CC(c2cccc(Br)c2)=C(c2ccc(S(N)(=O)=O)cc2)C1=O [Example 132, N-Propyl-3-(4-aminosulfonylphenyl)-4-(3-bromophenyl)-2,5-dihydropyrrole-2-one]
